# Measurements as given in paper PMC4230943, “Mimicking Hypoxia to Treat Anemia: HIF-Stabilizer BAY 85-3934 (Molidustat) Stimulates Erythropoietin Production without Hypertensive Effects” (PLoS ONE, 2014).
# Assays:
# [1] = tested on: cynomolgus monkeys; experiment: Comparison of BAY 85-3934 with rhEPO (single dose and 14-day repeat dose); format: in vivo, cynomolgus monkey
# Experimental: Male and female cynomolgus monkeys (2.8–5.6 kg in body weight) were used, which were housed two per cage. Blood samples from conscious cynomolgus monkeys were taken by puncturing a superficial vein. In a 5-day, repeat-dose study of plasma EPO response, BAY 85-3934 was administered at doses of 0.5 mg/kg and 1.5 mg/kg at 0 h, 24 h, 48 h, 72 h, and 96 h. Blood samples were taken at 7 h, 31 h, 55 h, 79 h, 103 h, and 168 h. Erythropoietic parameters were also evaluated after a 2-week treatment period with s.c. administration of rhEPO (100 IU/kg twice weekly at days 1, 4, 8, and 11) and BAY 85-3934 (1.5 mg/kg) once daily.
# (§1) EPO was measured in plasma samples taken from rodents using a commercial ELISA kit (R&D Systems), according to the manufacturer’s instructions. Relative plasma EPO levels were given in picograms per milliliter. In cynomolgus monkeys, EPO was measured using a combination anti-human EPO ELISAs (R&D Systems and Roche Diagnostics), with human EPO as a standard. Values were given as units per liter. For determination of plasma prorenin from rats, a commercial ELISA (Oxford Biomedical Research) was used according to the manufacturer’s instructions. Hemoglobin in rodent blood samples was determined on a Cell-Dyn 3700 apparatus (Abbott Diagnostics). BAY 85-3934 plasma concentrations were determined after protein precipitation with acetonitrile/ammonium acetate using an internal standard, followed by separation using HPLC/mass spectrometry.
# In a further study, the efficacy of oral treatment with BAY 85-3934 was evaluated in comparison with rhEPO. Animals were administered a single dose of rhEPO (100 IU/kg) by s.c. injection or BAY 85-3934 (1.5 mg/kg, oral). After administration of rhEPO, plasma concentrations of rhEPO were more than 8-fold higher than the endogenous EPO levels induced by treatment with BAY 85-3934 (Fig. 3B). The area under the curve (AUC) of rhEPO was more than 6-fold higher than the AUC of endogenous EPO. […] Mean reticulocyte counts were 2-fold higher after treatment with rhEPO than after treatment with BAY 85-3934, but returned to baseline values 8 days after treatment cessation.
# [2] = tested on: male Wistar rats; experiment: Single oral dose: plasma EPO and reticulocytes in healthy rats; format: in vivo, rat
# Experimental: Male Wistar rats (240–340 g in body weight) were housed with five animals per cage for at least 1 week before experimentation. Blood samples from rats were collected under anesthesia (2% isoflurane in air) by puncturing the retro-orbital vein plexus with a glass capillary. […] The number of reticulocytes in 5 µl blood was counted after staining with thiazol orange (Becton Dickinson) according to the manufacturer’s instructions by FACS analysis on a BD FACSCalibur system (Becton Dickinson). […] The time-course of induction of EPO mRNA expression and plasma EPO was determined at baseline and 0.5 h, 1 h, 2 h, 4 h, 6 h, and 8 h after oral administration of a single dose of BAY 85-3934 (5 mg/kg). EPO was measured in plasma samples taken from rodents using a commercial ELISA kit (R&D Systems), according to the manufacturer’s instructions. Relative plasma EPO levels were given in picograms per milliliter. […] Experiments were conducted in male Wistar rats to assess the threshold doses for EPO induction and the erythropoietic activity of BAY 85-3934.
# [3] = tested on: male Wistar rats; experiment: Time-course of kidney mRNA expression (EPO, HIF target genes) and plasma EPO after a single dose; format: in vivo, rat
# Experimental: Male Wistar rats (240–340 g in body weight) were housed with five animals per cage for at least 1 week before experimentation. Blood samples from rats were collected under anesthesia (2% isoflurane in air) by puncturing the retro-orbital vein plexus with a glass capillary. In a repeat-dose, 26-day experiment, animals were administered vehicle or BAY 85-3934 at doses of 0.5 mg/kg, 1.25 mg/kg, 2.5 mg/kg, and 5 mg/kg. PCV was determined at baseline and at weekly intervals after centrifugation in a hematocrit capillary tube (Brand) for 10 min at full speed in a Haemofuge centrifuge (Heraeus). The number of reticulocytes in 5 µl blood was counted after staining with thiazol orange (Becton Dickinson) according to the manufacturer’s instructions by FACS analysis on a BD FACSCalibur system (Becton Dickinson). The efficacy of BAY 85-3934 (2.5 mg/kg, once-daily, oral) was also compared with that of rhEPO (25 IU/kg, 50 IU/kg, and 100 IU/kg, twice-weekly, s.c. injection). The time-course of induction of EPO mRNA expression and plasma EPO was determined at baseline and 0.5 h, 1 h, 2 h, 4 h, 6 h, and 8 h after oral administration of a single dose of BAY 85-3934 (5 mg/kg).
# as §1
# Total RNA was extracted from shock-frozen cell or tissue samples using the TRIzol method. Integrity of obtained RNA was checked on a Bioanalyzer (Agilent Technologies). For reverse transcription, 1 µg of total RNA was digested with RNase-free DNase I (Gibco) for 15 min at room temperature, and then reverse-transcribed using Promiscript (Promega GmbH) in a total reaction volume of 40 µl according to the standard protocol of the supplier. After inactivation of the enzyme by heating to 65°C for 15 min, the obtained cDNA was diluted to a final volume of 150 µl with double-distilled water, and 4 µl used per PCR reaction. qRT-PCR, including normalization of raw data to cytosolic β-actin, was carried out as described previously. The resulting expression is given in arbitrary units.
# [4] = biological target: T1, PHD2 (Homo sapiens, UniProt Q9GZT9); experiment: Prolyl hydroxylase assay (Eu-VBC binding to hydroxylated HIF-1α 556–574 peptide); format: biochemical
# T1 construct: made in house; host or cells: Sf9 insect cells (baculovirus, pBacPAC transfer vectors)
# T1 sequence (Q9GZT9 whole entry): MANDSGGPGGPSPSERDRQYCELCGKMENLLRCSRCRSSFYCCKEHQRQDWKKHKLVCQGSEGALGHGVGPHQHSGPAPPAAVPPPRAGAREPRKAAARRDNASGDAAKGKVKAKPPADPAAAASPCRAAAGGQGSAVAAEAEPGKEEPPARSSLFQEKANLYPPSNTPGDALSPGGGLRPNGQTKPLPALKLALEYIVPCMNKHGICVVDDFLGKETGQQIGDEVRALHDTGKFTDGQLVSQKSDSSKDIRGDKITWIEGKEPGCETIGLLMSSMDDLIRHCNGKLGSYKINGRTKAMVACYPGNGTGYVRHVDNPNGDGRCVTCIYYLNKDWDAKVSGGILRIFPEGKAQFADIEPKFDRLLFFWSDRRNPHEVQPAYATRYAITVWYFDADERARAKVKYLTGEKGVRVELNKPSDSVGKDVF
# Experimental: DELFIA labeling reagent (PerkinElmer) was used to label purified VBC complex with europium according to the manufacturer’s instructions.
# The prolyl hydroxylase assay was performed as described previously [32] with minor modifications. […] The immobilized peptide substrate was incubated with the appropriate amount of HIF-PH in buffer containing 20 mM Tris (pH 7.5), 5 mM KCl, 1.5 mM MgCl2, 20 µM 2-oxoglutarate, 10 µM FeSO4, 2 mM ascorbate, 4% protease inhibitors without EDTA (Roche Diagnostics) in a final volume of 100 µl, with or without test compound added at appropriate concentrations. The reaction time was 60 min. To stop the reaction, plates were washed three times with wash buffer.
# Hydroxylated biotinyl-HIF-1α 556–574 was incubated with Eu-VBC in 100 µl binding buffer (50 mM Tris [pH 7.5], 120 mM NaCl) for 60 min at room temperature. After washing six times with DELFIA wash buffer (PerkinElmer) and adding 100 µl enhancer solution (PerkinElmer), the amount of bound VBC was determined by measuring time-resolved fluorescence with a Tecan infinite M200 plate reader. Measurements were taken in triplicate or more, and results were expressed as means ± SEM. IC50 values were determined after curve fitting using GraphPad Prism software (GraphPad Software, La Jolla, CA, USA) applying the four-parameter logistic equation to the data sets.
# To measure the activity of HIF-PH inhibitors quantitatively, a microplate assay was developed that employed the interaction of the VBC complex with the peptide HIF-1α 556–574 after being hydroxylated at proline 564 by recombinant HIF-PH. Activity of the recombinant enzyme was dependent on the concentrations of several cofactors, 2-oxoglutarate, Fe^2+, and ascorbate, in the reaction mixture.
smiles,measurement,setting,value
"O=c1c(-n2ccnn2)c[nH]n1-c1cc(N2CCOCC2)ncn1 [BAY 85-3934, 2-[6-(morpholin-4-yl)pyrimidin-4-yl]-4-(1H-1,2,3-triazol-1-yl)-1,2-dihydro-3H-pyrazol-3-one]","mean gains of hemoglobin and red blood cells, both treatments compared","[1]; 14 days, rhEPO 100 IU/kg twice weekly s.c., BAY 85-3934 1.5 mg/kg once daily",almost completely congruent over time
same,"induced EPO peak concentrations, factor within the normal physiological range",[1]; chronic once-daily administration,approximately 2 fold
same,time for which maximal plasma EPO concentrations were maintained,[2]; doses of 500 mg/kg and above,over 48 h
same,doses giving maximal EPO induction,"[2]; single oral administration, data not shown",≥ 500 mg/kg
same,doses giving statistically significant EPO induction,"[2]; single oral administration, plasma EPO at 4 h",≥ 1.25 mg/kg
same,doses giving a dose-dependent increase in the proportion of reticulocytes,"[2]; single oral dose, 72 h",≥ 1.25 mg/kg
same,time of maximum EPO plasma concentration,"[3]; 5 mg/kg oral, single dose",6 h
same,time of peak kidney EPO mRNA expression,"[3]; 5 mg/kg oral, single dose",2 h
same,kidney mRNA induction of the other genes examined (moderate or absent),[3]; 5 mg/kg single dose,less than 2 fold
same,"time of peak mRNA levels of HMOX-1, IGFBP-1, adrenomedullin, ANGPTL-4","[3]; 5 mg/kg single dose, kidney",2 h
same,kidney ANGPTL-4 mRNA induction factor,"[3]; 5 mg/kg single dose, p<0.01",3.8 fold
same,kidney HMOX-1 mRNA induction factor,"[3]; 5 mg/kg single dose, p<0.01",3.2 fold
same,kidney adrenomedullin mRNA induction factor,"[3]; 5 mg/kg single dose, p<0.01",2.3 fold
same,kidney insulin-like growth factor binding protein-1 mRNA induction factor,"[3]; 5 mg/kg single dose, p<0.01",2.2 fold
same,kidney EPO mRNA induction over baseline,"[3]; 5 mg/kg single dose, peak at 2 h",about 50 fold
same,IC50,"[4]; 20 µM 2-oxoglutarate, 10 µM Fe2+, 2 mM ascorbate",280 nM
same,increase of potency on lowering 2-oxoglutarate,[4]; 2-oxoglutarate lowered from 20 µM to 0.3 µM (Fig. 1A),up to 10 fold
same,alteration of potency on varying Fe2+ and ascorbate,"[4]; Fe2+ and ascorbate varied by factors of 30 and 200 (Fig. 1B, C)",≤ 2 fold
